Results published in US12324810B2, “3, 7-diamino-10H-phenothiazine salts and their use” (WisTa Laboratories Ltd., priority 2006, dated 2025).
Read-outs that look alike come from different tables or passages of the source.

Assays:
fibroblast cells (3T6) = type: cell-based; settings: therapeutic index, RxI = LD50/EC50
Method: Toxicity of the compounds described herein was assessed in the cell based assay used to assess EC50. […] Alternatively, a kit from Promega UK (CytoTox 96) was used, again according to the manufacturer's instructions.

[1] = Stability of the solid form in storage; type: physicochemical
Method: A batch of N,N,N′,N′-tetramethyl-10H-phenothiazine-3,7-diamine bis(hydrogen bromide) was prepared in April 2006 and analysed by NMR. […] The colour of the solid remained consistent over time. It appears that the molecule, in this form, is stable under these conditions over this time period.

[2] = Partition coefficient, n-octanol/water, visible spectrophotometry; type: physicochemical
Method: In this study, aqueous solutions of selected compounds were shaken with n-octanol and aliquots concentrations in each phase determined by visible spectrophotometry. The log10P was then calculated for each compound, using the following formula:

[3] = biological target: T1, full-length tau (T40) in fibroblast cells (3T6) (Homo sapiens, UniProt P10636); test: Cell-based assay for establishing EC50 (generation of the 12 kD fragment)
T1 construct: fibroblast cells (3T6) express full-length tau (“T40”) under control of an inducible promoter; low constitutive levels of the PHF-core tau fragment (12 kD fragment); expressed in transfected cells; host or cells: 3T6 fibroblast cells
T1 sequence (P10636 2-441 isoform P10636-8 limits assumed): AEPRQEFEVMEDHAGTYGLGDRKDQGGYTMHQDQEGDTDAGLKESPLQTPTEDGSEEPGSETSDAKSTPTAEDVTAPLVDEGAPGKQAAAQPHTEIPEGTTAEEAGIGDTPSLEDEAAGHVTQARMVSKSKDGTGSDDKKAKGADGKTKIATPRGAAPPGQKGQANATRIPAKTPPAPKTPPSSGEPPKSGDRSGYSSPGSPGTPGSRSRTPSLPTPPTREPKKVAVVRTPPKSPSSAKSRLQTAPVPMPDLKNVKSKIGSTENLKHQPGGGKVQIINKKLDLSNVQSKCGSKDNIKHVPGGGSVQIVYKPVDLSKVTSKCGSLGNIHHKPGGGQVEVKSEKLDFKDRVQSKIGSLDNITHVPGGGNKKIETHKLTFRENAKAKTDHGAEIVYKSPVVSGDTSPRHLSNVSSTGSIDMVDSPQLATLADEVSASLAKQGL
Text: Briefly, fibroblast cells (3T6) express full-length tau (“T40”) under control of an inducible promoter, and low constitutive levels of the PHF-core tau fragment (12 kD fragment). When T40 expression is induced, it undergoes aggregation-dependent truncation within the cell, N-terminally at ˜αα295 and C-terminally at ˜αα390, thereby producing higher levels of the 12 kD PHF-core domain fragment. […] Indeed, the quantitation of inhibitory activity of compounds with respect to proteolytic generation of the 12 kD fragment within cells can be described entirely in terms of the same parameters that describe inhibition of tau-tau binding in vitro. That is, the extent of proteolytic generation of the 12 kD fragment within cells is determined entirely by the extent of tau-tau binding through the repeat domain. The availability of the relevant proteases within the cell is non-limiting.
Results are expressed as the concentration at which there is a 50% inhibition of generation of the 12 kD fragment. This is referred to as the EC50 value.

[4] = Stability in aqueous solution (percent reduced form by absorbance at 610 nm and 665 nm); type: physicochemical
Method: The compounds were weighed into universal containers. Enough water was added to yield a 1 mM solution, and the mixture stirred to dissolve the solid. The absorbance was determined at 610 nm and 665 nm for 50 μL samples (in triplicate) of each of the solutions at various time points. The initial time point taken was at 10 minutes as the compounds took time to dissolve completely. A UV/visible spectrum was also recorded at time points 20 minutes, 3 hours, and 18 hours.

[5] = concentration at which there is a 50% inhibition of generation of the 12 kD fragment, 3T6 cells, read-out: EC50

Row | SMILES | RxI (fibroblast cells (3T6)) | Log10P [2] | EC50 [3, 5] | also measured
1 | CN(C)c1ccc2c(c1)Sc1cc(N(C)C)ccc1N2 [Compound B3, N,N,N′,N′-Tetramethyl-10H-phenothiazine-3,7-diamine bis(hydrogen chloride)] | 88 | −0.13 | 500 nM | state of solid form after storage ([1]; solid form, after 2 years in storage): substantially reduced
2 | Nc1ccc2c(c1)Sc1cc(N)ccc1N2 [Compound B4, 3,7-Diamino-phenothiazine bis(hydrogen chloride)] | – | – | 2230 nM | –
3 | CN(C)c1ccc2c(c1)Sc1cc(N(C)C)ccc1N2 [Compound B6, N,N,N′,N′-Tetramethyl-10H-phenothiazine-3,7-diamine bis(hydrogen iodide)] | 303 | −0.498 | – | time remaining substantially stable (>50% reduced form) ([4]; 1 mM solution in water): ~3 h; rate of autoxidation ([4]; aqueous solution, compared to the chloride compound (Compound B3)): slower; EC50 [3]: 380 nM
4 | CN(C)c1ccc2c(c1)Sc1cc(N(C)C)ccc1N2 [N,N,N′,N′-Tetramethyl-10H-phenothiazine-3,7-diamine bis(hydrogen bromide] | – | – | – | stability of solid after storage (NMR, colour) ([1]; solid, 10 months of storage in the dark at room temperature): stable
